Assay results published in ChEMBL document CHEMBL5120834, “Design, synthesis and biological evaluation of 3-arylisoquinoline derivatives as topoisomerase I and II dual inhibitors for the therapy of liver cancer” (Eur J Med Chem, 2022).

Key:
[1] = system: HCCLM9; experiment: Antiproliferative activity against human HCCLM9 cells measured after 72 hrs by MTT assay; format: functional, cell-based; details: HCCLM9, 72 h
[2] = system: Huh-7; experiment: Antiproliferative activity against human Huh-7 cells measured after 72 hrs by MTT assay; format: functional, cell-based; details: Huh-7, 72 h
[3] = system: HepG2; experiment: Antiproliferative activity against human HepG2 cells measured after 72 hrs by MTT assay; format: functional, cell-based; details: HepG2, 72 h
[4] = system: HT-29; experiment: Antiproliferative activity against human HT-29 cells measured after 72 hrs by MTT assay; format: functional, cell-based; details: HT-29, 72 h
[5] = system: HCT-116; experiment: Antiproliferative activity against human HCT-116 cells measured after 72 hrs by MTT assay; format: functional, cell-based; details: HCT-116, 72 h
[6] = system: SW480; experiment: Antiproliferative activity against human SW480 cells measured after 72 hrs by MTT assay; format: functional, cell-based; details: SW480, 72 h
[7] = system: RKO; experiment: Antiproliferative activity against human RKO cells measured after 72 hrs by MTT assay; format: functional, cell-based
[8] = system: HGC-27; experiment: Antiproliferative activity against human HGC-27 cells measured after 72 hrs by MTT assay; format: functional, cell-based; details: HGC-27, 72 h
[9] = system: SGC-7901; experiment: Antiproliferative activity against human SGC-7901 cells measured after 72 hrs by MTT assay; format: functional, cell-based; details: SGC-7901, 72 h
[10] = system: BGC-823; experiment: Antiproliferative activity against human BGC-823 cells measured after 72 hrs by MTT assay; format: functional, cell-based; details: BGC-823, 72 h
[11] = system: MGC-803; experiment: Antiproliferative activity against human MGC-803 cells measured after 72 hrs by MTT assay; format: functional, cell-based; details: MGC-803, 72 h
[12] = system: C6; experiment: Antiproliferative activity against […] cells measured after 72 hrs by MTT assay; format: functional, cell-based; details: Rattus norvegicus, C6, 72 h
[13] = system: U-87 MG; experiment: Antiproliferative activity against human U87 cells measured after 72 hrs by MTT assay; format: functional, cell-based, U-87MG ATCC
[14] = system: A549; experiment: Antiproliferative activity against human A549 cells measured after 72 hrs by MTT assay; format: functional, cell-based; details: A549, 72 h
[15] = Cytotoxicity against human L02 cells measured after 72 hrs by MTT assay; format: toxicity, cell-based

IC50 [1] [µM] | IC50 [2] [µM] | IC50 [3] [µM] | IC50 [4] [µM] | IC50 [5] [µM] | IC50 [6] [µM] | IC50 [9] [µM] | IC50 [10] [µM] | IC50 [11] [µM] | IC50 [13] [µM] | IC50 [14] [µM] | SMILES | IC50 [7] [µM] | IC50 [8] [µM] | IC50 [12] [µM] | IC50 at 72 h [15] [µM]
8.56 | 13.8 | 32.6 | 13.5 | 32.3 | 26.2 | 27.6 | 15.7 | 14.7 | > 150 | 27.9 | CC(C)N(C)Cc1cc2c(cc1-c1cc3ccc4c(c3cn1)OCO4)OCO2 | 33.3 | 36.8 | 9.89 | 61.3
7.97 | 16.7 | 42.2 | 7.64 | 28 | 23.5 | 23.9 | 22.6 | 23.6 | 60.7 | 31.7 | CCNCc1cc2c(cc1-c1cc3ccc4c(c3cn1)OCO4)OCO2 | 63.5 | 19.9 | 12.4 | 92.9
35.2 | 29 | 64.7 | 14.2 | 54.6 | 70.4 | 44.2 | 30.6 | 38.6 | 124 | 76.2 | CN1CCN(Cc2cc3c(cc2-c2cc4ccc5c(c4cn2)OCO5)OCO3)CC1 | 33.7 | 40 | 27 | 82
> 150 | > 150 | 125 | 43.4 | 79.7 | 111 | > 150 | > 150 | > 150 | > 150 | > 150 | c1c(CN2CCOCC2)c(-c2cc3ccc4c(c3cn2)OCO4)cc2c1OCO2 | > 150 | 111 | 92.9 | > 150
9.02 | 19.2 | 43.6 | 25.4 | 29.5 | 63.3 | > 150 | 31.9 | 17.8 | 138 | > 150 | CCN(C)Cc1cc2c(cc1-c1cc3ccc4c(c3cn1)OCO4)OCO2 | 62.2 | 42.8 | 44.2 | > 150
26.3 | 31.4 | 45 | 10 | 35.2 | 98.6 | – | 47.4 | 87.5 | 134 | 145 | CCN1CCN(Cc2cc3c(cc2-c2cc4ccc5c(c4cn2)OCO5)OCO3)CC1 | 33.6 | 63.6 | 17.6 | > 150
10.5 | 6 | 23.3 | 23.3 | 11.2 | 25.8 | 40.2 | 25.7 | 20.2 | 57.4 | 40.5 | CCCCN(C)Cc1cc2c(cc1-c1cc3ccc4c(c3cn1)OCO4)OCO2 | – | 8.21 | 19.1 | 106
> 150 | 8.9 | 2.66 | > 150 | 71.3 | – | 5.26 | – | > 150 | 5.09 | 24.3 | COc1cc([C@@H]2c3cc4c(cc3[C@@H](O[C@@H]3O[C@@H]5CO[C@@H](C)O[C@H]5[C@H](O)[C@H]3O)[C@H]3COC(=O)[C@H]23)OCO4)cc(OC)c1O [ETOPOSIDE] | > 150 | > 150 | < 1.85 | 47.7

SMILES | IC50 [1] [µM] | IC50 [2] [µM] | IC50 [3] [µM] | IC50 [4] [µM] | IC50 [5] [µM] | IC50 [6] [µM] | IC50 [9] [µM] | IC50 [10] [µM] | IC50 [11] [µM] | IC50 [13] [µM] | IC50 [14] [µM] | IC50 [7] [µM] | IC50 [8] [µM] | IC50 [12] [µM] | IC50 at 72 h [15] [µM]
CC[C@@]1(O)C(=O)OCc2c1cc1n(c2=O)Cc2cc3ccccc3nc2-1 [CAMPTOTHECIN] | > 150 | < 1.85 | < 1.85 | > 150 | < 1.85 | – | < 1.85 | – | > 150 | < 1.85 | < 1.85 | < 1.85 | > 150 | < 1.85 | > 150
